Laboratory results from patent EP4745134A1 (Jiangsu Yahong Meditech Co., Ltd., priority 2023, dated 2025).
Like-named read-outs stand apart in the source and are kept apart here.

Legend:
HCT116 MTAP KO cells = test: Inhibitory activity against cell proliferation (CellTiter Glo, 6 days), HCT116 MTAP KO; format: cell-based; settings: for IC50: Homo sapiens, HCT-116, 144 h; for Selectivity HCT 116-WT/ HCT116 MTAP KO: ratio of IC50 HCT116-WT / HCT116 MTAP KO
Outline: (§1)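 Viability IC50s come from CellTiter Glo luminescence after 6 days' exposure to compound (8 concentrations, 4-fold steps, top 10000 nM), relative to DMSO wells. Cells were MTAP-KO or WT HCT116, seeded at 250 per well in McCoy's 5A with 10% FBS and incubated overnight before dosing.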

HCT116-WT cells = test: Inhibitory activity against cell proliferation (CellTiter Glo, 6 days), HCT116-WT; format: cell-based; settings: 144 h
Outline: as §1

PRMT5-MTA = PRMT5-MTA (Homo sapiens, UniProt O14744); test: Enzymatic inhibitory activity against PRMT5-MTA (AlphaScreen); format: biochemical
Outline: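 PRMT5/[…] (1 nM) was preincubated for 30 min at room temperature with 1 µM […] and 2.5 µM SAM, then exposed to compound (10-point, 3-fold from 1000 nM) for 15 min at 23 °C. Histone H4 substrate (5 nM) was added and reacted for 45 min at 23 °C. Symmetric dimethyl-R3 H4 was detected by AlphaScreen and IC50 calculated.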

[1] = HCT116 MTAP KO cells, 6 days, CellTiter Glo, read-out: HCT116 MTAP KO IC50
[2] = HCT116-WT cells, 6 days, CellTiter Glo, read-out: HCT116-WT IC50

Sequence of PRMT5-MTA (O14744 whole entry): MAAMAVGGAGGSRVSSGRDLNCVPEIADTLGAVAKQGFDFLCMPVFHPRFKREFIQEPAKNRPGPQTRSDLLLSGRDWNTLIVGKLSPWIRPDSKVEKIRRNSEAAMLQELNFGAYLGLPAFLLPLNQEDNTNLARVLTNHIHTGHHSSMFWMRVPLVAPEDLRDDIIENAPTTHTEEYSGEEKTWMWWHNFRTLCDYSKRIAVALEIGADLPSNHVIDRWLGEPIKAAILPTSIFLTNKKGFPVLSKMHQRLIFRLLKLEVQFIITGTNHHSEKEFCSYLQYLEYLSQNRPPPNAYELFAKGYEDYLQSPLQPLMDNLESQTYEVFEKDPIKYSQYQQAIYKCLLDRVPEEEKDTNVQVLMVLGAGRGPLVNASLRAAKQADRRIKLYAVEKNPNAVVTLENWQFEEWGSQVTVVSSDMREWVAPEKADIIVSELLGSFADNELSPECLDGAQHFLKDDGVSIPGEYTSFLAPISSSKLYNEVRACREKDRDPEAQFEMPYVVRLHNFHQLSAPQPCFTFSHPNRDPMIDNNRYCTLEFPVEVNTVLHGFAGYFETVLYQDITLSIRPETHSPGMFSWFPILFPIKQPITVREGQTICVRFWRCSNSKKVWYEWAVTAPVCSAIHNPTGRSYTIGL
Sequence of PRMT5-MTA (Q9BQA1 whole entry partner): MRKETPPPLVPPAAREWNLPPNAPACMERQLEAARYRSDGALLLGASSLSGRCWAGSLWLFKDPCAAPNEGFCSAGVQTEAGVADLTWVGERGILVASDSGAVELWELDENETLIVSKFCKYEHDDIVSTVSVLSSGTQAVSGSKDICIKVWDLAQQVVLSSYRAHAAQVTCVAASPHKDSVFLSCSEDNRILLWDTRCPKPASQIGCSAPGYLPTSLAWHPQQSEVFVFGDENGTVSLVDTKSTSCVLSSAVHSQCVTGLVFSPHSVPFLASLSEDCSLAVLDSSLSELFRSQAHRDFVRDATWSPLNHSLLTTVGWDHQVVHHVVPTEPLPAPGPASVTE

Compound	IC50 (HCT116 MTAP KO cells; [1]) [nM]	Selectivity HCT 116-WT/ HCT116 MTAP KO (HCT116 MTAP KO cells)	IC50 (HCT116-WT cells; [2]) [nM]	IC50 (PRMT5-MTA; read-out: IC50) [nM]	IC50 (HCT116 MTAP KO cells; read-out: HCT116 MTAP KO IC50 (nM)) [nM]	IC50 (HCT116-WT cells; read-out: HCT116-WT IC50 (nM)) [nM]	IC50 (PRMT5-MTA) [nM]
Cc1cc2cc(C(=O)N(Cc3ccc(C(F)(F)F)cn3)N(C)c3nccc4c3ncn4C)ccc2nc1N [Example 265, 2-amino-N',3-dimethyl-N'-(1-methyl-1H-imidazo[4,5-c]pyridin-4-yl)-N-((5-(trifluoromethyl)pyridin-2-yl)methyl)quinoline-6-carbohydrazide]	38	14.45	549	2	–	–	–
Cc1cc2cc(C(=O)N(Cc3ccc(C(F)(F)F)cn3)N(C)c3nccc4ccncc34)ccc2nc1N [Example 266, 2-amino-N',3-dimethyl-N'-(2,7-naphthyridin-1-yl)-N-((5-(trifluoromethyl)pyridin-2-yl)methyl)quinoline-6-carbohydrazide]	231	13.60	3140	2.6	–	–	–
Nc1nc2ccc(C(=O)N(Cc3ccc(C(F)(F)F)cn3)N(c3ncccn3)C3CC3)cc2cc1Br [Example 270, 2-amino-3-bromo-N'-cyclopropyl-N'-(pyrimidin-2-yl)-N-((5-(trifluoromethyl)pyridin-2-yl)methyl)quinoline-6-carbohydrazide]	110	13.74	1510	4.9	–	–	–
Cc1cc2cc(C(=O)N(Cc3ccc(C(F)(F)F)cn3)N(C)c3nccc4sccc34)ccc2nc1N [Example 271, 2-amino-N',3-dimethyl-N'-(thieno[3,2-c]pyridin-4-yl)-N-((5-(trifluoromethyl)pyridin-2-yl)methyl)quinoline-6-carbohydrazide]	89	13.42	1190	2.7	–	–	–
Cc1cc2cc(C(=O)N(Cc3ccc(C(F)(F)F)cn3)N(C)c3nccc4nc(C)c(C)nc34)ccc2nc1N [Example 272, 2-amino-N'-(2,3-dimethylpyrido[3,4-b]pyrazin-5-yl)-N',3-dimethyl-N-((5-(trifluoromethyl)pyridin-2-yl)methyl)quinoline-6-carbohydrazide]	242	13.13	3180	2.6	–	–	–
Cc1cc2cc(C(=O)N(Cc3ccc(C(F)F)cn3)N(C)c3ncccn3)ccc2nc1N [Example 273, 2-amino-N-((5-(difluoromethyl)pyridin-2-yl)methyl)-N',3-dimethyl-N'-(pyrimidin-2-yl)quinoline-6-carbohydrazide]	78	29.27	2280	2.8	–	–	–
Cc1cc2cc(C(=O)N(Cc3ccc(C(F)(F)F)cn3)N(C)c3nccc4ccsc34)ccc2nc1N [Example 274, 2-amino-N',3-dimethyl-N'-(thieno[2,3-c]pyridin-7-yl)-N-((5-(trifluoromethyl)pyridin-2-yl)methyl)quinoline-6-carbohydrazide]	167	15.10	2520	3.7	–	–	–
Cc1cnc(N(C)N(Cc2ccc(C(F)(F)F)cn2)C(=O)c2ccc3nc(N)c(C)cc3c2)nc1 [Example 276, 2-amino-N',3-dimethyl-N'-(5-methylpyrimidin-2-yl)-N-((5-(trifluoromethyl)pyridin-2-yl)methyl)quinoline-6-carbohydrazide]	80	24.70	1980	1.6	–	–	–
Cc1cc2cc(C(=O)N(Cc3ncc(Br)cc3F)N(C)c3ncccn3)ccc2nc1N [Example 277, 2-amino-N-((5-bromo-3-fluoropyridin-2-yl)methyl)-N',3-dimethyl-N'-(pyrimidin-2-yl)quinoline-6-carbohydrazide]	79	24.23	1910	2.2	–	–	–
Cc1cc2cc(C(=O)N(Cc3c(F)cc(Br)cc3F)N(C)c3ncccn3)ccc2nc1N [Example 278, 2-amino-N-(4-bromo-2,6-difluorobenzyl) -N',3-dimethyl-N'-(pyrimidin-2-yl)quinoline-6-carbohydrazide]	28	14.11	395	1.5	–	–	–
Cc1cc2nc(N)c3cnn(C)c3c2cc1C(=O)N(C)N1CCc2ccccc21 [Example 279]	–	–	–	–	284	> 10000	4.3
COC1(c2ccc(CN(C(=O)c3ccc4nc(N)c(C)cc4c3)N(C)c3ncccn3)nc2)COC1 [Example 284, 2-amino-N-((5-(3-methoxyoxetan-3-yl)pyridin-2-yl)methyl)-N',3-dimethyl-N'-(pyrimidin-2-yl)quinoline-6-carbohydrazide]	194	17.71	3440	2.3	–	–	–
Cc1cc2cc(C(=O)N(Cc3ccc(C4(F)COC4)cn3)N(C)c3ncccn3)ccc2nc1N [Example 286, 2-amino-N-((5-(3-fluorooxetan-3-yl)pyridin-2-yl)methyl)-N',3-dimethyl-N'-(pyrimidin-2-yl)quinoline-6-carbohydrazide]	91	26.60	2420	2.7	–	–	–
Cc1cc2cc(C(=O)N(Cc3ccc(C4(F)CCC4)cn3)N(C)c3ncccn3)ccc2nc1N [Example 287, 2-amino-N-((5-(1-fluorocyclobutyl)pyridin-2-yl)methyl)-N',3-dimethyl-N'-(pyrimidin-2-yl)quinoline-6-carbohydrazide]	113	22.69	2560	2.2	–	–	–
Cc1cc2cc(C(=O)N(Cc3ccc(C4CCC4)cn3)N(C)c3ncccn3)ccc2nc1N [Example 289, 2-amino-N-((5-cyclobutylpyridin-2-yl)methyl)-N',3-dimethyl-N'-(pyrimidin-2-yl)quinoline-6-carbohydrazide]	53	13.04	691	0.9	–	–	–
Cc1cc2cc(C(=O)N(Cc3ccc(C(C)(F)F)cn3)N(C)c3ncccn3)ccc2nc1N [Example 291, 2-amino-N-((5-(1,1-difluoroethyl)pyridin-2-yl)methyl)-N',3-dimethyl-N'-(pyrimidin-2-yl)quinoline-6-carbohydrazide]	39	26.90	1050	3.9	–	–	–
Cc1cc2cc(C(=O)N(Cc3ccc(C(C)F)cn3)N(C)c3ncccn3)ccc2nc1N (stereo not shown) [Example 292, 2-amino-N-((5-(1-fluoroethyl)pyridin-2-yl)methyl)-N',3-dimethyl-N'-(pyrimidin-2-yl)q uinoline-6-carbohydrazide]	50	30.30	1520	1.4	–	–	–
CC(=O)c1ccc(CN(C(=O)c2ccc3nc(N)c(C)cc3c2)N(C)c2ncccn2)nc1 [Example 294, N-((5-acetylpyridin-2-yl)methyl)-2-amino-N',3-dimethyl-N'-(pyrimidin-2-yl)quinoline-6-carbohydrazide]	113	25.71	2900	1.9	–	–	–
Cc1cc2cc(C(=O)N(Cc3ccc(C(C)O)cn3)N(C)c3ncccn3)ccc2nc1N (stereo not shown) [Example 295, 2-amino-N-((5-(1-hydroxyethyl)pyridin-2-yl)methyl)-N',3-dimethyl-N-(pyrimidin-2-yl) quinoline-6-carbohydrazide]	399	12.38	4940	2	–	–	–
CN(c1ncccn1)N(Cc1ccc(C(F)(F)F)cn1)C(=O)c1ccc2nc(N)c(Br)cc2c1 [Example 303, 2-amino-3-bromo-N'-methyl-N'-(pyrimidin-2-yl)-N-((5-(trifluoromethyl)pyridin-2-yl)methyl)quinoline-6-carbohydrazide]	110	27.20	2990	3	–	–	–
C=Cc1cc2cc(C(=O)N(Cc3ccc(C(F)(F)F)cn3)N(C)c3ncccn3)ccc2nc1N [Example 304, 2-amino-N'-methyl-N'-(pyrimidin-2-yl)-N-((5-(trifluoromethyl)pyridin-2-yl)methyl)-3-v inylquinoline-6-carbohydrazide]	204	17.81	3630	3.9	–	–	–
CCc1cc2cc(C(=O)N(Cc3ccc(C(F)(F)F)cn3)N(C)c3ncccn3)ccc2nc1N [Example 305, 2-amino-3-ethyl-N'-methyl-N'-(pyrimidin-2-yl)-iN-((5-(trifluoromethyl)pyridin-2-yl)methyl)quinoline-6-carbohydrazide]	85	19.60	1670	2.3	–	–	–
Cc1cc2cc(C(=O)N(Cc3ccc(C(F)(F)F)cn3)N(C)c3ncccn3)ncc2nc1N [Example 306, 2-amino-N',3-dimethyl-N'-(pyrimidin-2-yl)-N-((5-(trifluoromethyl)pyridin-2-yl)methyl) -1,7-naphthyridine-6-carbohydrazide]	319	12.15	3880	4.9	–	–	–
